According to ChEMBL document CHEMBL1128147, “Mechanistic support for the stepwise process for inactivation of class A -lactamases by clavulanate” (Bioorg Med Chem Lett, 1995):
Each block holds one compound with its values, some of them ahead of it.

How the values were obtained:
[1] = Partition ratio between Kcat (for beta lactamase) and Kinact (for beta lactamase) was determined
[2] = Partition ratio between Kcat and Kinact was determined
[3] = biological target: Beta-lactamase (Enterobacter cloacae) (UniProt P05364)
Beta-lactamase (Enterobacter cloacae), sequence (P05364 21-381 limits assumed): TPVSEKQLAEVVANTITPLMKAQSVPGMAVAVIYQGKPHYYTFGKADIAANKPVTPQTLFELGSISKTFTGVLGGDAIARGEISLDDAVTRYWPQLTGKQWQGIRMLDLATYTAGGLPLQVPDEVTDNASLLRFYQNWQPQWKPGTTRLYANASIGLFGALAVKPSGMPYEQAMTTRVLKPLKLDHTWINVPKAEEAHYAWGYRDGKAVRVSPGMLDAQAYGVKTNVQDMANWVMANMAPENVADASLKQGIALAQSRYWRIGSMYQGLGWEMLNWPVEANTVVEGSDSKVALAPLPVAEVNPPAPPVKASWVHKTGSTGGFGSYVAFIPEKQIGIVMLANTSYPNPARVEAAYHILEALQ
Description: K2 for inactivation of TEM-1 beta-lactamase

[4] = biological target: Beta-lactamase (Enterobacter cloacae) (UniProt P05364); remark: listed apart in the source
Description: K3 for inactivation of TEM-1 beta-lactamase

[5] = biological target: Beta-lactamase (Enterobacter cloacae) (UniProt P05364); remark: listed apart in the source
Description: Ks for inactivation of TEM-1 beta-lactamase

[6] = biological target: Beta-lactamase (Enterobacter cloacae) (UniProt P05364); remark: listed apart in the source
Description: Kcat for inactivation of TEM-1 beta-lactamase

[7] = test system: Beta-lactamase TEM (Escherichia coli); assay: Effect on rate of recovery of TEM-2 beta lactamase from transient inhibition

- Ratio [1]: 390
SMILES: C/C=C1\O[C@@H]2CC(=O)N2[C@H]1C(=O)O

- Ratio [2]: 3.7e+06
- K2 [3]: 42 s⁻¹
- K3 [4]: 10 s⁻¹
- Ks [5]: 11.6 µM
- k cat [6]: 8 s⁻¹
SMILES: O=C(O)[C@H]1C(CCO)O[C@@H]2CC(=O)N21 (some centres not stated)

- Rate of recovery [7]: 0.002 s⁻¹
SMILES: O=C1C[C@H]2O/C(=C\CO)[C@H](CO)N12
